# From patent US6916970B2, “Transgenic plants comprising antifungal polypeptides from alfalfa and methods for controlling plant pathogenic fungi” (Monsanto Technology, LLC, priority 1996, dated 2005)
# Key:
# Fusarium culmorum = test: Inhibition of fungal hyphal growth (microscopic hyphal length assay); type: cell-based; settings: F. culmorum
# Method: (§1) The antifungal activity of AlfAFP1 (SEQ ID NO:2) is expressed as the concentration in μg/ml required to cause 50% inhibition of fungal hyphal growth (IC50). Percent fungal hyphal growth inhibition is defined as […] of the average hyphae length in the test sample culture divided by the average hyphae length in the control culture in which buffer is added in place of the polypeptide sample.
# (§2) The antifungal activity of AlfAFP1 was determined by measuring the inhibition of fungal hyphal length of a number of different fungi in the presence of this polypeptide under an inverted microscope. Fungal spores (2×10^4 spores/ml) were allowed to germinate for 5 to 15 hours, depending on the fungus used in the test, in 50 μl of double strength testing medium. […] For studies on the antagonistic effect of cations, CaCl2 and KCl were added to final concentrations of 1 mM and 50 mM, respectively. This salt-supplemented medium is referred to as “high salt medium,” and the original medium is referred to as “low salt medium.” After spore germination, 50 μl of a filter-sterilized solution of polypeptide in distilled water were added to the testing well containing the germinated spores, and the mixture was incubated for 15 to 24 hours at 24° C. AlfAFP1 was tested in a concentration range from 0 to 80 μg/ml to determine IC50 values. Polypeptide concentrations were determined using the BCA protein assay kit obtained from Pierce (Rockford, Ill.).
# Verticillium dahliae [1] = test: as above; type: cell-based; settings: V. dahliae
# Method: as §1, §2
# Verticillium dahliae [2] = test: Verticillium wilt disease test on transgenic potato plants expressing AlfAFP1; type: in vivo, potato plants (Solanum tuberosum var. Russet Burbank)
# Method: Conidia and mycelia of a 2-3 week old culture of virulent Verticillium dahliae were used to inoculate a PDA (potatoes, 200 g/l; Bacto dextrose, 20 g/l; and Bacto agar, 15 g/l) Petri plate. This culture was allowed to grow at 22° C. for 4-5 days. Conidia were then harvested by washing the culture plate with sterile distilled water and filtering the liquid through two layers of cheesecloth. The conidial spore concentration was determined using a hemacytometer, and adjusted to 1×10^6 conidia/ml with sterile distilled water.
# Transgenic and non-transgenic potato plants were grown from stem cuttings under sterile conditions as described above in plastic cups containing 50 mls of PM-agar medium. When plants were about 1-2 inches tall, they were removed from the medium and their roots were dipped in the spore suspension (Joaquim et al., 1991). The inoculated plants were then transplanted into 6-inch pots containing Metro-Mix 350 soil. After transplanting, each plant received an additional 5 mls of the spore suspension (1×10^6 condida/ml) on the soil surface around the base of the stem. The pots were placed in a growth chamber under the following conditions: temperature at 20° C., light intensity at […], 12 hr day/12 hr night light cycle, subirrigation with water 2 times/day, 20 minutes soaking each time. Four weeks after inoculation, the plants were scored for disease severity on a scale of 0-100% (Horsfall et al., 1945). To develop a disease progress curve over time, plants were rated once a week for at least 8 weeks.
# Twenty-one independent transgenic potato lines expressing AlfAFP1 were tested for resistance to Verticillium wilt disease. […]
# Table 2 summarizes the qualitative protein expression data for each of the lines, and the disease severity rating of each individual line in the Verticillium wilt disease test determined at 46 days post inoculation. […]
# [3] = high salt medium (1 mM CaCl2 and 50 mM KCl added)
substance,measurement,setting,value
"AlfAFP1: antifungal polypeptide of 45 amino acids isolated from alfalfa (Medicago) seed, SEQ ID NO:2, about 5,186 daltons (RTCENLADKYRGPCFSGCDTHCTTKENAVSGRCRDDFRCWCTKRC; Alfalfa)","IC50 (concentration required to cause 50% inhibition of fungal hyphal growth), High salt",Fusarium culmorum; [3],15 µg/mL
same,"IC50 (concentration required to cause 50% inhibition of fungal hyphal growth), Low salt",Fusarium culmorum; low salt medium,1 µg/mL
same,"IC50 (concentration required to cause 50% inhibition of fungal hyphal growth), High salt",Verticillium dahliae [1]; [3],15 µg/mL
same,"IC50 (concentration required to cause 50% inhibition of fungal hyphal growth), Low salt",Verticillium dahliae [1]; low salt medium,4 µg/mL
same,Lines with disease severity rated equal to or less than 30%,"Verticillium dahliae [2]; AlfAFP1 expressing potato lines, 46 days post inoculation, controls 1 out of 21 and 1 out of 18",Thirteen out of 21
same,Average Disease Severity (%) (46 Days Post Inoc.),"Verticillium dahliae [2]; average of 21 AlfAFP1 positive potato lines, non-expressors 62.7, vector control 62.2",29.6%
same,Disease severity less than that of the non-expressors or the vector controls,"Verticillium dahliae [2]; average of 21 expressor lines versus 21 non-expressor lines or 18 vector control lines, 46 days post inoculation",52%
